Like-named read-outs stand apart in the source and are kept apart here.

Assay [1] deals with T1, Syk kinase (Homo sapiens, UniProt P43405).
T1 construct: purchased Upstate, Lake Placid N.Y
Put plainly: Syk kinase biochemical fluorescence polarization assay. The note with it: isolated Syk kinase, 11pt, read-out: fp_syk, 11pt. The method, then:
Many of the 2,4-pyrimidinediamine compounds were tested for the ability to inhibit Syk kinase catalyzed phosphorylation of a peptide substrate in a biochemical fluorescenced polarization assay with isolated Syk kinase. In this experiment, Compounds were diluted to 1% DMSO in kinase buffer (20 mM HEPES, pH 7.4, 5 mM MgCl2, 2 mM MnCl2, 1 mM DTT, 0.1 mg/mL acetylated Bovine Gamma Globulin). Compound in 1% DMSO (0.2% DMSO final) was mixed with ATP/substrate solution at room temperature. Syk kinase (Upstate, Lake Placid N.Y.) was added to a final reaction volume of 20 uL, and the reaction was incubated for 30 minutes at room temperature. […] EDTA (10 mM final)/anti-phosphotyrosine antibody (1× final)/fluorescent phosphopeptide tracer (0.5× final) was added in FP Dilution Buffer to stop the reaction for a total volume of 40 uL according to manufacturer's instructions (PanVera Corporation) The plate was incubated for 30 minutes in the dark at room temperature. Plates were read on a Polarion fluorescence polarization plate reader (Tecan). Data were converted to amount of phosphopeptide present using a calibration curve generated by competition with the phosphopeptide competitor provided in the Tyrosine Kinase Assay Kit, Green (PanVera Corporation).
In Tabe 1, all reported values are IC50s (in μM).
(In fluorescence polarisation assays a small probe gives low polarisation when free and higher when bound to something large.)

The test system of assay [2] is cultured human mast cells (CHMC), IgE-induced degranulation. Put plainly: CHMC low cell density IgE activation: tryptase assay. In kind it is cell-based. In outline:
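Cord-blood CD34+-derived mucosal mast cells (SCF/IL-6 medium), 1000–1500 cells/well, preincubated with compound 1 h at 37°C, then anti-IgE stimulated 30 min at 37°C.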

In assay [3] the test system is cultured human mast cells (CHMC), ionomycin-induced degranulation. Put plainly: CHMC low cell density ionomycin activation: tryptase assay. In kind it is cell-based. The note with it: 3pt, read-out: LD Tryptase, CHMC, Iono, 3pt.
[4] abbreviates: low cell density CHMC, 3pt, read-out: LD Tryptase, CHMC, IgE, 3pt.
The mark [5] stands for this setting: low cell density CHMC, 8pt, read-out: LD Tryptase, CHMC, IgE, 8pt.
[6] abbreviates: low cell density CHMC, ionomycin activation (2 μM final).
The mark [7] stands for this setting: CHMC low cell density, 3pt, read-out: LD Tryptase, CHMC, IgE, 3pt.
The mark [8] stands for this setting: CHMC low cell density, ionomycin activation.

As for `COc1cc(Nc2ncc(F)c(Nc3ccc4c(c3)NC(C)(C)CO4)n2)cc(OC)c1` [Compound 203, N4-(3,4-Dihydro-3,3-dimethyl-2H,4H-benz[1,4]oxazin-6-yl)-N2-(3,5-dimethoxyphenyl)-5-fluoro-2,4-pyrimidinediamine], the IC50 in assay [1] is less than 10 µM.

`O=C1Nc2cc(Nc3nc(Nc4ccc(-c5cnco5)cc4)ncc3F)ccc2OC1CCO` (centres unmarked) [Compound 227]: the IC50 in assay [1] was less than 10 µM.

Consider `COc1cc(Nc2ncc(F)c(Nc3ccc4c(c3)NC(=O)C(C)S4(=O)=O)n2)cc(OC)c1` (centres unmarked) [Compound 263, N2-(3,5-Dimethoxyphenyl)-N4-(dioxide-2-methyl-1,1,3-trioxo-4H-benzo[1,4]thiazin-6-yl)-5-fluoro-2,4-pyrimidinediamine], for which the IC50 in assay [1] is less than 10 µM.

As for `Cc1cc(C)cc(Nc2ncc(F)c(Nc3ccc4c(c3)NC(=O)C(C)S4(=O)=O)n2)c1` (centres unmarked) [Compound 264], the IC50 in assay [1] was less than 10 µM.

`CC1C(=O)Nc2cc(Nc3nc(Nc4ccc5cn[nH]c5c4)ncc3F)ccc2S1(=O)=O` (centres unmarked) [Compound 265]: in assay [1], the IC50 was less than 10 µM.

In the case of `COc1cc(Nc2ncc(F)c(Nc3ccc4c(c3)NC(=O)C(C)S4(=O)=O)n2)cc(OC)c1OC` (centres unmarked) [Compound 266], in assay [1], the IC50 was less than 10 µM.

On to `COc1cc(Nc2ncc(F)c(Nc3ccc4c(c3)NC(=O)C(C)(C)S4(=O)=O)n2)cc(OC)c1` [Compound 267], for which the IC50 in assay [1] is less than 10 µM.

`Cc1cc(C)cc(Nc2ncc(F)c(Nc3ccc4c(c3)NC(=O)C(C)(C)S4(=O)=O)n2)c1` [Compound 268]: the IC50 in assay [1] was less than 10 µM.

For `COc1cc(Nc2ncc(F)c(Nc3ccc4c(c3)NC(=O)C(C)(C)S4(=O)=O)n2)cc(OC)c1OC` [Compound 269], in assay [1], the IC50 was less than 10 µM.

As to `CC1(C)Sc2ccc(Nc3nc(Nc4ccc5cn[nH]c5c4)ncc3F)cc2NC1=O` [Compound 295], the IC50 in assay [1] is less than 10 µM.

Take `CC1(C)Oc2ccc(Nc3nc(Nc4cc(CO)cc(CO)c4)ncc3F)cc2NC1=O` [Compound 344, N2-[3,5-Bis(hydoxymethylene)phenyl]-N4-(2,2-dimethyl-3-oxo-4H-benz[1,4]oxazin-6-yl)-5-fluoro-2,4-pyrimidinediamine]: the IC50 in assay [1] is less than 10 µM.

With `CN(c1ccc2c(c1)OCCO2)c1nc(Cl)ncc1F` [Compound 390], the IC50 in assay [1] was greater than 10 µM.

For the molecule `COc1cc(Nc2ncc(F)c(Nc3ccc4c(c3)NC(=O)C(C)(C)O4)n2)cc(OC)c1OC` [Compound 543], in assay [1], the IC50 was less than 10 µM.

In the case of `CCn1ncc2cc(Nc3ncc(F)c(Nc4ccc5c(c4)NC(=O)C(C)(C)O5)n3)ccc21` [Compound 696], the IC50 in assay [1] was less than 10 µM.

Take `CCCn1ncc2cc(Nc3ncc(F)c(Nc4ccc5c(c4)NC(=O)C(C)(C)O5)n3)ccc21` [Compound 704]: the IC50 in assay [1] was less than 10 µM.

For `CCCn1ncc2ccc(Nc3ncc(F)c(Nc4ccc5c(c4)NC(=O)C(C)(C)O5)n3)cc21` [Compound 708], the IC50 in assay [1] is less than 10 µM.

For `CCCCn1ncc2cc(Nc3ncc(F)c(Nc4ccc5c(c4)NC(=O)C(C)(C)O5)n3)ccc21` [Compound 712], in assay [1], the IC50 was less than 10 µM.

For `CCCCn1ncc2ccc(Nc3ncc(F)c(Nc4ccc5c(c4)NC(=O)C(C)(C)O5)n3)cc21` [Compound 716], in assay [1], the IC50 was less than 10 µM.

`CC1(C)Oc2ccc(Nc3nc(Nc4ccc5c(cnn5CC5CC5)c4)ncc3F)cc2NC1=O` [Compound 736]: the IC50 in assay [1] was less than 10 µM.

As for `CC1(C)Oc2ccc(Nc3nc(Nc4ccc5cnn(CC6CC6)c5c4)ncc3F)cc2NC1=O` [Compound 740], the IC50 in assay [1] is less than 10 µM.

Regarding `CC1(C)Oc2ccc(Nc3nc(Nc4ccc5c(cnn5C5CCCCC5)c4)ncc3F)cc2NC1=O` [Compound 744], the IC50 in assay [1] was less than 10 µM.

With `Cc1nn(C)c2cc(Nc3ncc(F)c(Nc4ccc5c(c4)NC(=O)C(C)(C)O5)n3)ccc12` [Compound 754], in assay [1], the IC50 was less than 10 µM.

For the molecule `CC1(C)Oc2ccc(Nc3nc(Nc4ccc5nc(C(F)(F)F)[nH]c5c4)ncc3F)cc2NC1=O` [Compound 802, N4-(2,2-Dimethyl-3-oxo-4H-benz[1,4]oxazin-6-yl)-5-fluoro-N2-(2-trifluoromethyl-1H-benzimidazol-5-yl)-2,4-pyrimidinediamine], the IC50 in assay [1] is less than 10 µM.

For `CNC(=O)CNC(=O)c1ccc(Nc2ncc(F)c(Nc3ccc4c(c3)NC(=O)C(C)(C)O4)n2)cc1` [Compound 1295, N4-(2,2-Dimethyl-3-oxo-4H-benz[1,4]oxazin-6-yl)-5-fluaro-N2-[4-[N-(N-methylamino)carbonylmethylene]aminocarbonylphenyl]-2,4-pyrimidinediamine], the results for the IC50 in assay [2] (setting [4]), in assay [2] (setting [5]) and in assay [3] (setting [6]) were less than 10 µM, less than 10 µM and greater than 10 µM, respectively.

Regarding `CNC(=O)CNC(=O)c1ccc(Nc2ncc(F)c(Nc3ccc4c(c3)NC(=O)[C@H](C)O4)n2)cc1` [Compound 1296, (S)-5-Fluoro-N2-[4-[N-(N-methylamino)carbonylmethylene]aminocarbonylphenyl]-N4-(2-methyl-3-oxo-2H,4H-benz[1,4]oxazin-6-yl)-2,4-pyrimidinediamine], the results for the IC50 in assay [2] (setting [4]), in assay [2] (setting [5]) and in assay [3] (setting [6]) were less than 10 µM, less than 10 µM and greater than 10 µM, respectively.

In the case of `CC(C)(C)OC(=O)NCC(=O)NCc1ccc(Nc2ncc(F)c(Nc3ccc4c(c3)NC(=O)C(C)(C)O4)n2)cc1` [Compound 1307, N2-[4-[1-(tert-Butoxycarbonylamino)methylenecarbonylamino]methylphenyl]-N4-(2,2-dimethyl-3-oxo-4H-benz[1,4]oxazin-6-yl)-5-fluoro-2,4-pyrimidinediamine], the IC50 in assay [2] (setting [4]), in assay [2] (setting [5]) and in assay [3] (setting [6]) was less than 10 µM in each case.

Regarding `C[C@@H]1Oc2ccc(Nc3nc(Nc4ccc(CNC(=O)CNC(=O)OC(C)(C)C)cc4)ncc3F)cc2NC1=O` [Compound 1308, (S)—N2-[4-[1-(tert-Butoxycarbonylamino)methylenecarbonylamino]methylphenyl]-5-fluoro-N4-(2-methyl-3-oxo-2H,4H-benz[1,4]oxazin-6-yl)-2,4-pyrimidinediamine], the IC50 in assay [2] (setting [4]), in assay [2] (setting [5]) and in assay [3] (setting [6]) was less than 10 µM in each case.

Consider `CC(C)(C)OC(=O)NCC(=O)NCc1ccc(Nc2ncc(F)c(Nc3ccc4c(c3)NC(=O)C(F)(F)O4)n2)cc1` [Compound 1309, N2-[4-[1-(tert-Butoxycarbonylamino)methylenecarbonylamino]methylphenyl]-N4-(2,2-difluoro-3-oxo-4H-benz[1,4]oxazin-6-yl)-5-fluoro-2,4-pyrimidinediamine], for which the IC50 in assay [2] (setting [4]) was less than 10 µM; in assay [2] (setting [5]), less than 10 µM; in assay [3] (setting [6]), greater than 10 µM.

“N2-(3-Chloro-4-methoxyphenyl)-N4-(2,2-dimethyl-3-oxo-4H-benz[1,4]oxazin-6-yl)-5-fluoro-N4-methyl-2,4-pyrimidinediamine [Compound 394]”: the IC50 in assay [2] (setting [7]) and in assay [3] (setting [8]) was less than 10 µM each time.

Turning to “N2-(Bis-2-hydroxyethyl)-N4-(3,4-ethylenedioxyphenyl)-5-fluoro-N4-methyl-2,4-pyrimidinediamine [Compound 492]”, the IC50 in assay [2] (setting [7]) and in assay [3] (setting [8]) was greater than 10 µM each time.

With “N4-(2,2-Difluoro-3-oxo-4H-benz[1,4]oxazin-6-yl)-5-fluoro-N2-[4-[N-(N-methylamino)carbanylmethylene]aminocarbonyl phenyl]-2,4-pyrimidinediamine [Compound 1297]”, the values for the IC50 in assay [2] (setting [4]) and in assay [3] (setting [6]) were less than 10 µM and greater than 10 µM, respectively.

The record behind these values is US7560466B2, “Methods of treating or preventing autoimmune diseases with 2,4-pyrimidinediamine compounds” (Rigel Pharmaceuticals, Inc., priority 2003, dated 2009).
